Key:
[1] = Stability of liver microsomes; type: in vitro ADME; details: 10 umol/L
Procedure: Liver microsomes belonging to different species (human, rat) were respectively reacted with the compound according to the present invention for a certain period of time, and the residual rate was calculated by comparing a reacted sample with an unreacted sample, and the extent to which the compounds according to the present invention were metabolized by the liver was evaluated.

[2] = tested on: rat CIA model; assay: Hindfoot foot volume in rat CIA model; type: in vivo, Lewis rats; details: CIA rats; for Foot volume (ml)/Day: hindfoot
Procedure: (§1) Lewis rats (female, 10-12 weeks old) were obtained from Beijing Vital River Laboratory Animal Technology Co., Ltd. The rats were on a light and dark alternation for 12 h, and the environment was kept at a temperature of 23±2° C. and a humidity of 40-70%.
(§2) Type II collagen solution (2 mg/mL) was prepared with 0.05 M acetic acid solution to allow to be fully dissolved, and placed overnight in the dark at 4° C. During the test, 2 mg/mL type II collagen (C II) solution and 4 mg/mL complete Freund's adjuvant (CFA) solution were mixed in equal volumes under ice bath conditions to fully emulsify. On day 0, an emulsion prepared by mixing equal volumes of C II (2 mg/mL) and CFA (4 mg/mL) was injected intracutaneously into the base of the tail of experimental rats for primary immunization, and on day 7, secondary booster immunization was performed.
(§3) The therapeutic effect of the test compound was tested in a rat CIA model. The rats were randomly divided into groups with 8 animals in each group. All animals were immunized on day 0 and boosted on day 7.
(§4) Therefore, the differences in body weight and foot volume after the onset of arthritis compared with the negative group, respectively, can be used to evaluate the therapeutic effect in the rat model. The experimental data were expressed as Mean±SEM; the data between the two groups was tested by unpaired t-test and p<0.05 was considered as a significant difference.

[3] = tested on: main human CYP molecular species (CYP1A2, 2B6, 2C8, 2C9, 2C19, 2D6 and 3A4); assay: CYP inhibition test in mixed human liver microsomes; type: in vitro ADME
Procedure: Commercially available mixed human liver microsomes were used for the typical substrate metabolism reaction of the main human CYP molecular species (CYP1A2, 2B6, 2C8, 2C9, 2C19, 2D6 and 3A4). The reaction conditions were as follows: substrate, CYP1A2: 30 μM of phenacetin; CYP2C9: diclofenac 10 μM; CYP2C19: 35 μM of S-methphenytoin; CYP3A4: midazolam 5 μM, testosterone 80 μM; CYP2D6: bufuralol, 10 μM; CYP2C8: 10 μM of paclitaxel; and CYP2B6: bupropion 70 μM; reaction time, CYP1A2, 2C9, 2D6, 2C8, 2B6: 10 min; CYP2C19: 45 min; and CYP3A4: 5 min. Reaction temperature, 37° C. Inhibitor (positive control), CYP1A2: α-naphthoflavone; CYP2C9: sulfaphenazole; CYP2C19: omeprazole; CYP3A4: ketoconazole; CYP2D6: quinidine; CYP2C8: nicardipine; and CYP2B6: clopidogrel.
A series of dilutions for the test compound and the positive control were prepared in a 96-well plate, and 8 μL of 10 mM test compound was transferred to 12 μL of ACN. 1:3 serial dilution was performed in a DMSO:ACN mixture (v/v: 40:60). HLM was added to assay wells, and then the test compound or a reference inhibitor solution diluted with serum was added to the designated wells on ice. After the 96-well plate and NADPH solution was pre-incubated at 37° C. for 5 min, 15 μL of the pre-warmed 8 mM NADPH solution was added to the assay plate to start the reaction. […]

[4] = tested on: BaF3 cells; assay: Proliferation inhibition based on BaF3 cells (IL-3 medium, CTG); type: cell-based; details: Mus musculus, medium containing IL-3, read-out: IC50 (uM), proliferation inhibitory activity on BaF3 cells
Procedure: 1. Cell plating: cultured cells were collected with RPMI1640+10% FBS (containing IL-3) medium and counted for viable cells with Vi-Cell XR cell counter. The cell suspension was adjusted to an appropriate concentration with RPMI1640+10% FBS (containing IL-3) medium and then added to a 96-well cell culture plate. A certain amount of cell suspension was added to each well of the 96-well cell culture plate. The cells were cultured in corresponding incubators.
2. Drug treatment: a series of test compound concentration (work solution-1) was prepared using DMSO with 3× gradient dilution, and then it was subjected to fold dilution with RPMI1640+10% FBS (containing IL-3) to obtain a work solution-2; Cisplatin's work solution-2 was prepared with RPMI1640+10% FBS (containing IL-3), and then 1-10 μL solution taken from the work solution-2 was added to the prepared cell wells containing medium. The cells were cultured in the corresponding incubators. An appropriate CTG solution was added to each well.
Cell Survival Rate Calculation
T is the luminescence reading of a drug treatment group, and C is the average luminescence reading of a solvent control group.

[5] = Body weight of CIA rats
Procedure: as §1, §2, §3, §4

[6] = 2 mg/kg oral gavage once daily for 2 w, day 0
[7] = 2 mg/kg oral gavage once daily for 2 w, day 8
[8] = 2 mg/kg oral gavage once daily for 2 w, day 11
[9] = 2 mg/kg oral gavage once daily for 2 w, day 14
[10] = 2 mg/kg oral gavage once daily for 2 w, day 17
[11] = 2 mg/kg oral gavage once daily for 2 w, day 21
[12] = 2 mg/kg oral gavage once daily for 2 w, day 24
[13] = 2 mg/kg oral gavage once daily for 2 w, day 28
[14] = 3 mg/kg oral gavage once daily for 2 w, day 0
[15] = 3 mg/kg oral gavage once daily for 2 w, day 8
[16] = 3 mg/kg oral gavage once daily for 2 w, day 11
[17] = 3 mg/kg oral gavage once daily for 2 w, day 14
[18] = 3 mg/kg oral gavage once daily for 2 w, day 17
[19] = 3 mg/kg oral gavage once daily for 2 w, day 21
[20] = 3 mg/kg oral gavage once daily for 2 w, day 24
[21] = 3 mg/kg oral gavage once daily for 2 w, day 28
[22] = 5 mg/kg oral gavage once daily for 2 w, day 0
[23] = 5 mg/kg oral gavage once daily for 2 w, day 11
[24] = 5 mg/kg oral gavage once daily for 2 w, day 14
[25] = 5 mg/kg oral gavage once daily for 2 w, day 17
[26] = 5 mg/kg oral gavage once daily for 2 w, day 21
[27] = 5 mg/kg oral gavage once daily for 2 w, day 24
[28] = 5 mg/kg oral gavage once daily for 2 w, day 28
[29] = 10 mg/kg oral gavage once daily for 2 w, day 0
[30] = 10 mg/kg oral gavage once daily for 2 w, day 8
[31] = 10 mg/kg oral gavage once daily for 2 w, day 11
[32] = 10 mg/kg oral gavage once daily for 2 w, day 14
[33] = 10 mg/kg oral gavage once daily for 2 w, day 17
[34] = 10 mg/kg oral gavage once daily for 2 w, day 21
[35] = 10 mg/kg oral gavage once daily for 2 w, day 24
[36] = 10 mg/kg oral gavage once daily for 2 w, day 28

O=C(Nc1cn2c(-c3ccc(CN4CCS(=O)(=O)CC4)s3)cccc2n1)[C@H]1C[C@@H]1F (relative stereo) [EXP-3, trans-N-[5-[5-[(1,1-dioxo-1,4-thiazin-4-yl)methyl]-2-thiophene]imidazo[1,2-a]pyridin-2-yl]-2-fluoro-cyclopropylcarboxamide]
residual rate of the compound in oxidative metabolism ([1]; human liver microsomes): 59.32%
residual rate of the compound in oxidative metabolism ([1]; rat liver microsomes): 55.3%
foot volume, relative potency in words ([2]; 10 mg/kg): the most potent and significantly stronger than filgotinib 10 mg/kg
Foot volume (ml)/Day [2, 6]: 2.603 ± 0.021 mL
Foot volume (ml)/Day [2, 7]: 2.590 ± 0.027 mL
Foot volume (ml)/Day [2, 8]: 2.634 ± 0.059 mL
Foot volume (ml)/Day [2, 9]: 3.648 ± 0.303 mL
Foot volume (ml)/Day [2, 10]: 4.465 ± 0.261 mL
Foot volume (ml)/Day [2, 11]: 4.600 mL
Foot volume (ml)/Day [2, 12]: 4.487 mL
Foot volume (ml)/Day [2, 13]: 4.181 mL
Foot volume (ml)/Day [2, 14]: 2.633 ± 0.017 mL
Foot volume (ml)/Day [2, 15]: 2.624 ± 0.010 mL
Foot volume (ml)/Day [2, 16]: 2.706 ± 0.037 mL
Foot volume (ml)/Day [2, 17]: 3.724 ± 0.239 mL
Foot volume (ml)/Day [2, 18]: 4.759 ± 0.291 mL
Foot volume (ml)/Day [2, 19]: 4.863 mL
Foot volume (ml)/Day [2, 20]: 4.754 mL
Foot volume (ml)/Day [2, 21]: 4.299 mL
Foot volume (ml)/Day [2, 22]: 2.631 ± 0.017 mL
Foot volume (ml)/Day [2, 23]: 2.703 ± 0.061 mL
Foot volume (ml)/Day [2, 24]: 3.684 ± 0.315 mL
Foot volume (ml)/Day [2, 25]: 4.516 ± 0.302 mL
Foot volume (ml)/Day [2, 26]: 4.724 mL
Foot volume (ml)/Day [2, 27]: 4.582 mL
Foot volume (ml)/Day [2, 28]: 4.176 mL
Foot volume (ml)/Day [2, 29]: 2.645 ± 0.017 mL
Foot volume (ml)/Day [2, 30]: 2.613 ± 0.017 mL
Foot volume (ml)/Day [2, 31]: 2.647 ± 0.075 mL
Foot volume (ml)/Day [2, 32]: 3.652 ± 0.287 mL
Foot volume (ml)/Day [2, 33]: 4.249 ± 0.342 mL
Foot volume (ml)/Day [2, 34]: 4.331 mL
Foot volume (ml)/Day [2, 35]: 4.125 mL
Foot volume (ml)/Day [2, 36]: 3.826 mL
CYP inhibition [3]: no inhibitory effect
IC50 [4]: < 5 µM
Body weight (g)/Day [5, 6]: 172.3 ± 1.9 g
Body weight (g)/Day [5, 7]: 172.6 ± 0.7 g
Body weight (g)/Day [5, 8]: 172.3 ± 1.8 g
Body weight (g)/Day [5, 9]: 170.3 ± 1 g
Body weight (g)/Day [5, 10]: 169.1 ± 1.2 g
Body weight (g)/Day [5, 11]: 164.9 ± 1.8 g
Body weight (g)/Day [5, 12]: 166.4 ± 2.6 g
Body weight (g)/Day [5, 13]: 166.9 ± 2.7 g
Body weight (g)/Day [5, 14]: 174.5 ± 1.3 g
Body weight (g)/Day [5, 15]: 172.4 ± 2.7 g
Body weight (g)/Day [5, 16]: 170.8 ± 3.8 g
Body weight (g)/Day [5, 17]: 171.6 ± 2.9 g
Body weight (g)/Day [5, 18]: 170.1 ± 2.7 g
Body weight (g)/Day [5, 19]: 166.8 ± 1.8 g
Body weight (g)/Day [5, 20]: 165 ± 1.8 g
Body weight (g)/Day [5, 21]: 169.3 ± 2 g
Body weight (g)/Day [5, 22]: 171.8 ± 2.3 g
Body weight (g)/Day ([5]; 5 mg/kg oral gavage once daily for 2 w, day 8): 171.1 ± 3.1 g
Body weight (g)/Day [5, 23]: 170.9 ± 4.5 g
Body weight (g)/Day [5, 24]: 171.4 ± 2.4 g
Body weight (g)/Day [5, 25]: 172.8 ± 2.2 g
Body weight (g)/Day [5, 26]: 166.5 ± 1.9 g
Body weight (g)/Day [5, 27]: 165.3 ± 1.7 g
Body weight (g)/Day [5, 28]: 169.1 ± 2.1 g
body weight course, in words ([5]; 10 mg/kg): increased slightly on days 11-17, but then fell back
Body weight (g)/Day [5, 29]: 173.9 ± 1.8 g
Body weight (g)/Day [5, 30]: 175.3 ± 2.1 g
Body weight (g)/Day [5, 31]: 175.9 ± 2.8 g
Body weight (g)/Day [5, 32]: 175.3 ± 2.2 g
Body weight (g)/Day [5, 33]: 176.4 ± 3.3 g
Body weight (g)/Day [5, 34]: 171.8 ± 2.9 g
Body weight (g)/Day [5, 35]: 166.3 ± 2.9 g
Body weight (g)/Day [5, 36]: 170.4 ± 3.1 g

O=C(Nc1nc2cccc(-c3ccc(CN4CCS(=O)(=O)CC4)s3)n2n1)C1CC1 [EXP-1]
IC50 [4]: < 5 µM

Source: patent US20220274983A1, “JAK KINASE INHIBITOR AND USE THEREOF” (JIANGSU CAREPHAR PHARMACEUTICAL CO., LTD., priority 2019, published 2022)
